Measurements reported in the NIST ThermoML archive (doi:10.1016/j.jct.2013.04.015).
± gives the expanded uncertainty stated by the source.

Legend:
[1] = xn = mol fraction of the nth substance listed; details: for surface tension liquid-gas: Wilhelmy plate method; for mass density: 101 kPa, Liquid, Vibrating tube method
[2] = for surface tension liquid-gas: Wilhelmy plate method; for mass density: 101 kPa, Liquid, Vibrating tube method

CCCCn1cc[n+](C)c1.C[C@H](O)C(=O)[O-] [1-butyl-3-methylimidazolium L-lactate] + O
[1]
Details | mass density, 298.15 K [kg/m3] | mass density, 308.15 K [kg/m3] | mass density, 318.15 K [kg/m3] | surface tension liquid-gas, 298.15 K [mN/m] | surface tension liquid-gas, 308.15 K [mN/m] | surface tension liquid-gas, 318.15 K [mN/m]
x1 = 0.0097 | – | – | – | 53.67 ± 0.63 | 51.15 ± 0.6 | 49.79 ± 0.6
x1 = 0.0303 | – | – | – | 47.86 ± 0.56 | 46.42 ± 0.55 | 45.58 ± 0.54
x1 = 0.0401 | – | – | – | 46.95 ± 0.55 | 46.08 ± 0.54 | 45.57 ± 0.54
x1 = 0.0602 | – | – | – | 46.15 ± 0.54 | 45.87 ± 0.54 | 45.55 ± 0.53
x1 = 0.0801 | – | – | – | 46.98 ± 0.54 | 46.54 ± 0.54 | 46.18 ± 0.54
x1 = 0.1 | – | – | – | 46.96 ± 0.54 | 46.83 ± 0.54 | 46.15 ± 0.53
x1 = 0.1001 | 1042.3 ± 0.9 | 1039.4 ± 0.9 | 1036.4 ± 0.9 | – | – | –
x1 = 0.2001 | 1061.4 ± 0.8 | 1058.3 ± 0.8 | 1055 ± 0.8 | 46.03 ± 0.51 | 44.94 ± 0.5 | 44.2 ± 0.5
x1 = 0.2999 | 1075 ± 0.8 | 1071 ± 0.8 | 1066.6 ± 0.8 | – | – | –
x1 = 0.3003 | – | – | – | 44.61 ± 0.48 | 43.59 ± 0.48 | 42.86 ± 0.47
x1 = 0.3985 | 1083.6 ± 0.7 | 1079.1 ± 0.7 | 1074.1 ± 0.7 | – | – | –
x1 = 0.3997 | – | – | – | 44.08 ± 0.46 | 43.16 ± 0.46 | 42.44 ± 0.45
x1 = 0.4994 | – | – | – | 43.46 ± 0.44 | 43.07 ± 0.44 | 42.27 ± 0.44
x1 = 0.5023 | 1090.3 ± 0.7 | 1085.4 ± 0.7 | 1080.2 ± 0.7 | – | – | –
x1 = 0.5989 | – | – | – | 43.47 ± 0.43 | 42.87 ± 0.42 | 42.11 ± 0.42
x1 = 0.6002 | 1095.7 ± 0.6 | 1090.2 ± 0.6 | 1084.3 ± 0.6 | – | – | –
x1 = 0.6982 | – | – | – | 43.41 ± 0.41 | 42.62 ± 0.41 | 42.02 ± 0.41
x1 = 0.6986 | 1099.8 ± 0.6 | 1093.5 ± 0.6 | 1087.4 ± 0.6 | – | – | –
x1 = 0.8 | 1103.3 ± 0.6 | 1096.6 ± 0.6 | 1090.3 ± 0.5 | – | – | –
x1 = 0.8017 | – | – | – | 43.35 ± 0.4 | 42.54 ± 0.39 | 42 ± 0.39
x1 = 0.8965 | – | – | – | 43.2 ± 0.38 | 42.48 ± 0.38 | 41.82 ± 0.38
x1 = 0.9001 | 1107.2 ± 0.5 | 1100.3 ± 0.5 | 1093.8 ± 0.5 | – | – | –
x1 = 1 | 1111.2 ± 0.5 | 1104.2 ± 0.5 | 1097.7 ± 0.5 | 42.92 ± 0.37 | 42.37 ± 0.37 | 42.01 ± 0.37

O [water]
[2]
Details | mass density [kg/m3] | surface tension liquid-gas [mN/m]
298.15 K | – | 71.85 ± 0.78
308.15 K | 994.1 ± 0.9 | 70.48 ± 0.77
318.15 K | – | 68.89 ± 0.75

CO [methanol]
[2]
Details | mass density [kg/m3] | surface tension liquid-gas [mN/m]
298.15 K | 786.4 ± 0.4 | 22.22 ± 0.31
308.15 K | 776.9 ± 0.4 | 21.46 ± 0.3
318.15 K | 767.2 ± 0.4 | 20.46 ± 0.3

CCCCO [butan-1-ol] + CCCCn1cc[n+](C)c1.C[C@H](O)C(=O)[O-]
[1], x2 = 0
Details | mass density [kg/m3] | surface tension liquid-gas [mN/m]
298.15 K | 805.7 ± 0.4 | 23.89 ± 0.3
308.15 K | 798 ± 0.4 | 23.46 ± 0.3
318.15 K | 790.1 ± 0.4 | 22.62 ± 0.3
